Patent US20060063828A1 (priority 2004, published 2006)

Key:
VCAM-1 = test: In Vitro VCAM-1 Assay (ELISA of VCAM-1 on TNF-α stimulated endothelial cells); type: cell-based; conditions: Endothelial cell; primary human aortic (HAEC) or pulmonary (HPAEC) endothelial cells, TNF-α (1 ng/ml), approximately 16 hours
Description: Cell Culture and compound dosing: Cultured primary human aortic (HAEC) or pulmonary (HPAEC) endothelial cells were obtained from Clonetics, Inc., and were used below passage 9. Cells were seeded in 96 well plates such that they would reach 90-95% confluency by the following day. On the following day the cells were stimulated with TNF-α (1 ng/ml) in the presence or absence of compounds dissolved in DMSO such that the final concentration of DMSO is 0.25% or less. To establish a dose curve for each compound, four concentrations in 2- to 5-fold increments were used. Cells were exposed to TNF-α and compounds for approximately 16 hours. The next day the cells were examined under microscope to score for visual signs of toxicity or cell stress.
Following 16 hr exposure to TNF-α and compound the media was discarded and the cells were washed once with Hanks Balanced Salt Solution (HBSS)/Phosphate buffered saline (PBS) (1:1). Primary antibodies against VCAM-1 (0.25 μg/ml in HBSS/PBS+5% FBS) were added and incubated for 30-60 minutes at 37° C. Cells were washed with HBSS/PBS three times, and secondary antibody Horse Radish Peroxidase (HRP)-conjugated goat anti-mouse IgG (1:500 in HBSS/PBS+5% FBS) were added and incubated for 30 minutes at 37° C. Cells were washed with HBSS/PBS four time and TMB substrate were added and incubated at room temperature in the dark until there was adequate development of blue color. The length of time of incubation was typically 5-15 minutes. 2N sulfuric acid was added to stop the color development and the data was collected by reading the absorbance on a BioRad ELISA plate reader at OD 450 nm. The results are expressed as IC50 values (the concentration (micromolar) of compound required to inhibit 50% of the maximal response of the control sample stimulated by TNF-α only).

IC50 (VCAM-1)	melting point	SMILES
< 3000 nM	163 to 164 °C	C=C(C(=O)c1ccc(C(=O)O)cc1)c1ccc(OC)c(-c2cccs2)c1 [Example 1, 4-[2-(4-Methoxy-3-thien-2-yl-phenyl)-acryloyl]-benzoic acid]
< 1000 nM	232 °C (dec.)	C=C(C(=O)c1ccc(C(=O)O)cc1)c1cc(-c2cnc3ccccc3c2)ccc1OC [Example 2, 4-[2-(2-Methoxy-5-quinolin-3-yl-phenyl)-acryloyl]-benzoic acid]
< 3000 nM	90 °C (dec.)	C=C(C(=O)c1ccc(C(=O)O)cc1)c1cc(-c2cccn2C(=O)OC(C)(C)C)ccc1OC [Example 3, 2-{3-[1-(4-Carboxy-benzoyl)-vinyl]-4-methoxy-phenyl}-pyrrole-1-carboxylic acid tert-butyl ester]
< 1000 nM	215 °C (dec.)	C=C(C(=O)c1ccc(C(=O)O)cc1)c1cc(-c2cccnc2)ccc1OC [Example 4, 4-[2-(2-Methoxy-5-pyridin-3-yl-phenyl)-acryloyl]-benzoic acid]
< 1000 nM	240 to 242 °C (dec.)	C=C(C(=O)c1ccc(C(=O)O)cc1)c1cc(-c2cc3ccccc3s2)ccc1OC [Example 5, 4-[2-(5-Benzo[b]thien-2-yl-2-methoxy-phenyl)-acryloyl]-benzoic acid]
< 1000 nM	> 250 °C	C=C(C(=O)c1ccc(C(=O)O)cc1)c1c(OC)cc(-c2cccs2)cc1OC [Example 6]
< 1000 nM	–	C=C(C(=O)c1c(Cl)cccc1Cl)c1cc(-c2cccs2)ccc1OC [Example 7, 1-(2,6-Dichloro-phenyl)-2-(2-methoxy-5-thien-2-yl-phenyl)-propenone]
< 1000 nM	126 to 128 °C	C=C(C(=O)c1ccc(C(=O)OC)cc1)c1cc(-c2cccs2)ccc1OC [Example 9, 4-[2-(2-Methoxy-5-thien-2-yl-phenyl)-acryloyl]-benzoic acid methyl ester]
< 1000 nM	144 to 146 °C	C=C(C(=O)c1ccc(C(=O)NC(CO)(CO)CO)cc1)c1cc(-c2cccs2)ccc1OC [Example 10, N-(2-Hydroxy-1,1-bis-hydroxymethyl-ethyl)-4-[2-(2-methoxy-5-thien-2-yl-phenyl)-acryloyl]-benzamide]
< 1000 nM	197 to 199 °C	C=C(C(=O)c1ccc(C(=O)N2CCC(O)CC2)cc1)c1cc(-c2cccs2)ccc1OC [Example 11, 1-[4-(4-Hydroxy-piperidine-1-carbonyl)-phenyl]-2-(2-methoxy-5-thien-2-yl-phenyl)-propenone]
< 3000 nM	184 to 186 °C	C=C(C(=O)c1cc(-c2cc3ccccc3s2)c(OC)cc1OC)c1ccc(C(=O)OC)cc1 [Example 12, 4-[1-(5-Benzo[b]thien-2-yl-2,4-dimethoxy-benzoyl)-vinyl]-benzoic acid methyl ester]
< 3000 nM	116 to 121 °C	C=C(C(=O)c1ccc(F)cc1)c1cc(-c2cccs2)ccc1OC [Example 13, 1-(4-Fluoro-phenyl)-2-(2-methoxy-5-thien-2-yl-phenyl)-propenone]
< 3000 nM	187 to 190 °C	C=C(C(=O)c1ccc(N2CCCC2)cc1)c1cc(-c2cccs2)ccc1OC [Example 14, 2-(2-Methoxy-5-thien-2-yl-phenyl)-1-(4-pyrrolidin-1-yl-phenyl)-propenone]
< 3000 nM	204 to 205 °C	C=C(C(=O)c1ccc(OC)c(-c2cccs2)c1)c1ccc(C(=O)O)cc1 [Example 15, 4-[1-(4-Methoxy-3-thien-2-yl-benzoyl)-vinyl]-benzoic acid]
< 1000 nM	159 to 160 °C	C=C(C(=O)c1cc(OC)c(OC)c(-c2cccs2)c1)c1ccc(C(=O)O)cc1 [Example 16, 4-[1-(3,4-Dimethoxy-5-thien-2-yl-benzoyl)-vinyl]-benzoic acid]
< 1000 nM	–	C=C(C(=O)c1ccc(O)cc1)c1cc(-c2cccs2)ccc1OC [Example 17, 1-(4-Hydroxy-phenyl)-2-(2-methoxy-5-thien-2-yl-phenyl)-propenone]
< 3000 nM	160 to 162 °C	C=C(C(=O)c1ccc([N+](=O)[O-])cc1)c1cc(-c2cccs2)ccc1OC [Example 18, 2-(2-Methoxy-5-thien-2-yl-phenyl)-1-(4-nitro-phenyl)-propenone]
< 1000 nM	197 to 198 °C	C=C(C(=O)c1ccc(NS(C)(=O)=O)cc1)c1cc(-c2cccs2)ccc1OC [Example 19, N-{4-[2-(2-Methoxy-5-thien-2-yl-phenyl)-acryloyl]-phenyl}-methane-sulfonamide]

IC50 (VCAM-1)	melting point	SMILES
< 1000 nM	–	C=C(C(=O)c1ccc(N(C)S(C)(=O)=O)cc1)c1cc(-c2cccs2)ccc1OC [Example 20, N-{4-[2-(2-Methoxy-5-thien-2-yl-phenyl)-acryloyl]-phenyl}-N-methyl-methanesulfonamide]
< 1000 nM	155 to 158 °C	C=C(C(=O)c1ccc(NC(=O)C(C)C)cc1)c1cc(-c2cccs2)ccc1OC [Example 21, N-{4-[2-(2-Methoxy-5-thien-2-yl-phenyl)-acryloyl]-phenyl}-isobutyramide]
< 1000 nM	154 to 155 °C	C=C(C(=O)c1ccc(Nc2ncccn2)cc1)c1cc(-c2cccs2)ccc1OC [Example 22, 2-(2-Methoxy-5-thien-2-yl-phenyl)-1-[4-(pyrimidin-2-ylamino)-phenyl]-propenone]
< 3000 nM	149 to 151 °C	C=C(C(=O)c1ccc(Nc2ncccc2C(=O)OCC)cc1)c1cc(-c2cccs2)ccc1OC [Example 23, 2-{4-[2-(2-Methoxy-5-thien-2-yl-phenyl)-acryloyl]-phenylamino}-nicotinic acid ethyl ester]
< 1000 nM	234 °C (dec.)	C=C(C(=O)c1ccc(Nc2ncccc2C(=O)O)cc1)c1cc(-c2cccs2)ccc1OC [Example 24, 2-{4-[2-(2-Methoxy-5-thien-2-yl-phenyl)-acryloyl]-phenylamino}-nicotinic acid]
< 1000 nM	178 to 182 °C	C=C(C(=O)c1ccc(Nc2cnccn2)cc1)c1cc(-c2cccs2)ccc1OC [Example 25, 2-(2-Methoxy-5-thien-2-yl-phenyl)-1-[4-(pyrazin-2-ylamino)-phenyl]-propenone]
< 3000 nM	176 to 179 °C	C=C(C(=O)c1ccc(NS(=O)(=O)c2c(C)noc2C)cc1)c1cc(-c2cccs2)ccc1OC [Example 26, 3,5-Dimethyl-isoxazole-4-sulfonic acid {4-[2-(2-methoxy-5-thien-2-yl-phenyl)-acryloyl]-phenyl}-amide]
< 1000 nM	132.5 to 133.5 °C	C=C(C(=O)c1ccc(NC(=O)c2ccno2)cc1)c1cc(-c2cccs2)ccc1OC [Example 27, Isoxazole-5-carboxylic acid {4-[2-(2-methoxy-5-thien-2-yl-phenyl)-acryloyl]-phenyl}-amide]
< 1000 nM	165 to 168 °C	C=C(C(=O)c1ccc(NC(=O)c2cccn2C)cc1)c1cc(-c2cccs2)ccc1OC [Example 28, 1-Methyl-1H-pyrrole-2-carboxylic acid {4-[2-(2-methoxy-5-thien-2-yl-phenyl)-acryloyl]-phenyl}-amide]
< 1000 nM	–	C=C(C(=O)c1c(C)cccc1C)c1cc(-c2cccs2)ccc1OC [Example 29, 1-(2,6-Dimethyl-phenyl)-2-(2-methoxy-5-thien-2-yl-phenyl)-propenone]
< 1000 nM	–	C=C(C(=O)c1c(OC)ccc(-c2cccs2)c1OC)c1ccccc1OC [Example 31, 1-(2,6-Dimethoxy-3-thien-2-yl-phenyl)-2-(2-methoxy-phenyl)-propenone]
< 1000 nM	88 °C (dec.)	C=C(C(=O)c1c(C)cccc1Cl)c1ccc(C(=O)O)cc1-c1cccs1 [Example 32, 4-[1-(2-Chloro-6-methyl-benzoyl)-vinyl]-3-thien-2-yl-benzoic acid]
< 10000 nM	–	C=C(C(=O)c1c(C)cccc1C)c1ccccc1-c1cccs1 [Example 38, 1-(2,6-Dimethyl-phenyl)-2-(2-thien-2-yl-phenyl)-propenone]
< 6000 nM	–	C=C(C(=O)c1c(C)cccc1C)c1ccccc1-c1cccnc1OC [Example 39, 1-(2,6-Dimethyl-phenyl)-2-[2-(2-methoxy-pyridin-3-yl)-phenyl]-propenone]
< 3000 nM	–	C=C(C(=O)c1cc(-c2cccs2)ccc1OC)c1ccc([N+](=O)[O-])cc1 [Example 52, 1-(2-Methoxy-5-thien-2-yl-phenyl)-2-(4-nitro-phenyl)-propenone]
< 1000 nM	–	C=C(C(=O)c1cc(-c2cccs2)ccc1OC)c1ccc(C(=O)O)cc1 [Example 54, 4-[1-(2-Methoxy-5-thien-2-yl-benzoyl)-vinyl]-benzoic acid]
< 1000 nM	–	C=C(C(=O)c1ccc(C(=O)O)cc1)c1cc(-c2cccs2)ccc1OC(C)C [Example 59, 4-[2-(2-Isopropoxy-5-thien-2-yl-phenyl)-acryloyl]-benzoic acid]
